Patent US20250312320A1, “METHOD AND TREATMENT FOR OSTEOARTHRITIS AND DISEASES OF CHONDROCYTE HYPERTROPHY” (The Royal Veterinary College, priority 2022, published 2025)
Entries after “also recorded” stand apart in the source; their conditions may differ.

How the values were obtained:
[1] = system: ATDC5 micromass; assay: IL-1β induced extracellular matrix degradation of ATDC5 micromass: gene expression; assay type: cell-based, mouse
Method: To mimic this route of cartilage degradation in vitro, 10 μl ATDC5 micromasses were seeded and differentiated in the presence of 1 μM BI1347 or DMSO for 11 days to allow for sufficient ECM deposition. Cells were then serum starved for 24 hours in differentiation media containing 1% FBS before treatment with 1 μM BI1347 or DMSO for 1 hour and subsequent induction of ECM degradation by co-treatment with 10 ng/ml IL-1β (PeproTech) for 48 hours. Compound only conditions were used as a negative control and additional micromasses were differentiated in the presence of 1 μM BI1347 for the entire culture period to observe whether pre-treatment of ATDC5 with BI1347 alters cellular responses to IL-1B. On day 14 micromasses were stained with alcian blue and leached as previous and RNA extracted for gene expression analysis as above.

[2] = system: ATDC5 micromasses; assay: RNA sequencing of BI1347 treated ATDC5 micromasses; assay type: cell-based, mouse; conditions: 1 μM vs DMSO
Method: 2.7×10^5 ATDC5 cells were seeded in a 10 μl micromasses and differentiated in the presence of 1 μM BI1347 or DMSO control for 7 days before RNA extraction as previously described. Two wells were pooled per extraction and treatment conditions were set up in triplicate.
Total RNA quantification and integrity was determined via Bioanalyzer 2100 (Agilent) and RNA samples with an integrity number above 9.0 were processed for RNA sequencing.
The RNA library was formed by polyA capture using poly-T oligo attached magnetic beads and subsequently reverse transcribed for cDNA synthesis and library construction. The library was then sequenced using the Illumina PE150 technology and clean reads with high quality data were taken forward for downstream analysis. Paired-end clean reads were aligned to the Mus Musculus reference genome and reads numbers mapped to each gene. Fragments Per Kilobase of transcript sequence per Millions base pairs sequenced (FPKM) of each gene was calculated based on the length of the gene and reads count mapped to the gene.
Differential expression analysis of BI1347 treatment versus DMSO control was performed. Genes with an adjusted P-value≤0.05 and a fold change≥2 were considered differentially expressed.
Cluster analysis was carried out on all the differentially expressed genes in each group and biological replicate using hierarchical clustering to cluster the FPKM values of genes.
Genes of interest relating to chondrocyte hypertrophy and cartilage homeostasis were identified.

[3] = system: zebrafish embryo endochondral jaw bone; assay: Zebrafish jaw analysis of hypertrophic zones; assay type: in vivo, zebrafish (Danio rerio); conditions: 50 nM or 100 nM, 24 hpf to 5 dpf, vs DMSO
Method: Several bones during zebrafish (Danio rerio) craniofacial development exist via endochondral ossification, thus the developing zebrafish embryo is a useful in vivo model of chondrocyte hypertrophy (Dietrich et al. (2021) “Skeletal Biology and Disease Modeling in Zebrafish”. J Bone Miner Res, 36:436-458. https://doi.org/10.1002/jbmr.4256). Embryos at 24 hpf were cultured in the E3 water ([…], 0.17 mM KCl, 0.33 mM CaCl2, 0.33 mM MgSO4, and 0.1% Methylene Blue) in the presence of 50 nM or 100 nM MSC2530818 or DMSO control up until 5 dpf, with E3 water refreshed every 2 days. At 5 dpf embryos were fixed in 4% PFA overnight at 4° C. before washing in 70% EtOH for 10 mins followed by 50% EtOH for a further 10 mins. Specimens were then incubated in alcian blue stain (0.1% Alcian blue, 70% EtOH, 30% Glacial acetic acid) overnight with gentle agitation before 30 min washes in 100, 80, 70% EtOH and 0.1% PBST. Specimens were digested for 1 hour in enzyme solution (10 mg/ml trypsin in 30% saturated sodium tetraborate) followed by a 1-hour incubation in bleaching solution (3% hydrogen peroxide, 1% potassium hydroxide). Specimens were washed in 0.1% PBST and stored in 70% glycerol at 4° C. until imaging. Jaw sections were dissected and the number of enlarged cells within the entopterygoid/ceratohyal region were counted.

[4] = system: STR/Ort mouse (spontaneous osteoarthritis); assay: STR/Ort mouse 12 week study: gait analysis; assay type: in vivo; conditions: 5 mg/kg intermittently
Method: Following the pilot study, a larger in vivo study using the STR/Ort OA mouse model was conducted. Str/ORT male mice aged 22 weeks (post OA onset) were dosed with either DMSO (N=5) or MSC2530818 5 mg/kg (N=6) intermittently as above for 12 weeks.
On week 11 mice were placed on the DigiGate™ system (MouseSpecifics), a treadmill based video gait analysis software. For Gait analysis, each mouse was placed on the DigiGate™ and allowed to acclimatise for 5 minutes, the belt speed was then set to 13 cm/s for 10 seconds to capture videos of mice whilst walking. Videos were then cropped to 5 seconds of active walking and number of steps per hind limb was counted for each mouse.

[5] = 1 μM days 12-14, with 10 ng/ml IL-1β
[6] = 1 μM throughout differentiation, 10 ng/ml IL-1β days 12-14

`CN(C)C(=O)Cn1cc(-c2ccc(-c3cncc4ccccc34)cc2)cn1` [BI1347] was tested, and the “ACAN expression, increase vs DMSO” value [1, 5] was 3 fold, the “COL2A1 expression, increase vs DMSO” value [1, 5] was 1.5 fold and the “COL2A1 expression, increase vs DMSO” value ([1]; 1 μM days 12-14, without IL-1β) was 1.7 fold. The “ACAN expression, increase vs DMSO” value ([1]; 1 μM days 12-14, without IL-1β (N.S)) was 1.2 fold, the “ACAN expression, increase vs DMSO” value [1, 6] was 20 fold and the “COL2A1 expression, increase vs DMSO” value [1, 6] was 3 fold. The “enrichment of downregulated biological process: innate immune response” value ([2]; day 7, Gene Ontology) was 3 fold, the “enrichment of downregulated biological process: response to cytokines” value ([2]; day 7, Gene Ontology) was 3 fold and the “enrichment of downregulated biological process: response to interferon-beta” value ([2]; day 7, Gene Ontology) was 15 fold. The “enrichment of upregulated biological process: Chondrocyte differentiation” value ([2]; day 7, Gene Ontology) was 6 fold, the “enrichment of upregulated biological process: Collagen fibril organisation” value ([2]; day 7, Gene Ontology) was 10 fold and the “enrichment of upregulated biological process: cartilage development” value ([2]; day 7, Gene Ontology) was 5.5 fold. The “enrichment of upregulated biological process: extracellular matrix organisation” value ([2]; day 7, Gene Ontology) was 5 fold, the “Log2 Fold Change ACAN” value ([2]; RNA-Seq, day 7) was 2.40 and the “Log2 Fold Change ADAMT S4” value ([2]; RNA-Seq, day 7) was −1.58. For the same molecule, the “Log2 Fold Change AXIN2” value ([2]; RNA-Seq, day 7) was −2.38, the “Log2 Fold Change BARX2” value ([2]; RNA-Seq, day 7) was 6.42 and the “Log2 Fold Change BGLAP” value ([2]; RNA-Seq, day 7) was −1.42. The “Log2 Fold Change COL2A1” value ([2]; RNA-Seq, day 7) was 2.69, the “Log2 Fold Change COL9A3” value ([2]; RNA-Seq, day 7) was 4.44 and the “Log2 Fold Change COL 13A1” value ([2]; RNA-Seq, day 7) was −4.99. The “Log2 Fold Change CPA5” value ([2]; RNA-Seq, day 7) was 7.57, the “Log2 Fold Change CPM” value ([2]; RNA-Seq, day 7) was 6.76 and the “Log2 Fold Change F5” value ([2]; RNA-Seq, day 7) was 6.76. The “Log2 Fold Change FGFR3” value ([2]; RNA-Seq, day 7) was 1.75, the “Log2 Fold Change GALNT17” value ([2]; RNA-Seq, day 7) was 6.56 and the “Log2 Fold Change GDF5” value ([2]; RNA-Seq, day 7) was 2.39. The “Log2 Fold Change GREM1” value ([2]; RNA-Seq, day 7) was 1.68, the “Log2 Fold Change IBSP” value ([2]; RNA-Seq, day 7) was −6.06 and the “Log2 Fold Change IHH” value ([2]; RNA-Seq, day 7) was −2.65. The “Log2 Fold Change IL-6” value ([2]; RNA-Seq, day 7) was −3.23, the “Log2 Fold Change ISG15” value ([2]; RNA-Seq, day 7) was −6.47 and the “Log2 Fold Change KLK11” value ([2]; RNA-Seq, day 7) was 6.45. The “Log2 Fold Change MATN1” value ([2]; RNA-Seq, day 7) was 5.88, the “Log2 Fold Change MATN3” value ([2]; RNA-Seq, day 7) was 5.87 and the “Log2 Fold Change MEF2C” value ([2]; RNA-Seq, day 7) was −1.58. The “Log2 Fold Change NOG” value ([2]; RNA-Seq, day 7) was 2.08, the “Log2 Fold Change NOSTRIN” value ([2]; RNA-Seq, day 7) was −2.00 and the “Log2 Fold Change P2RY10” value ([2]; RNA-Seq, day 7) was 6.40. The “Log2 Fold Change PHLDA2” value ([2]; RNA-Seq, day 7) was 6.62, the “Log2 Fold Change SMOC3” value ([2]; RNA-Seq, day 7) was 2.71 and the “Log2 Fold Change SOX5” value ([2]; RNA-Seq, day 7) was 1.16. For the same molecule, the “Log2 Fold Change SOX6” value ([2]; RNA-Seq, day 7) was 1.11, the “Log2 Fold Change SOX8” value ([2]; RNA-Seq, day 7) was 2.65 and the “Log2 Fold Change TMEM119” value ([2]; RNA-Seq, day 7) was −4.98. For the same molecule, the “log2FoldChange GRHL3” value ([2]; RNA-Seq, day 7) was −7.66, the “log2FoldChange MX2” value ([2]; RNA-Seq, day 7) was −7.03 and the “log2FoldChange OAS1A” value ([2]; RNA-Seq, day 7) was −7.64. For the same molecule, the “log2FoldChange OAS2” value ([2]; RNA-Seq, day 7) was −11.27, the “log2FoldChange OAS3” value ([2]; RNA-Seq, day 7) was −7.22 and the “log2FoldChange OASL1” value ([2]; RNA-Seq, day 7) was −10.46. The “log2FoldChange RSAD2” value ([2]; RNA-Seq, day 7) was −7.12, the “log2FoldChange SLC36A2” value ([2]; RNA-Seq, day 7) was −8.53 and the “log2FoldChange TRIM30D” value ([2]; RNA-Seq, day 7) was −7.12.

`Cc1n[nH]c2ncc(C(=O)N3CCC[C@H]3c3ccc(Cl)cc3)cc12` [MSC2530818] was tested, and the “size of the hypertrophic region and number of enlarged/hypertrophic cells” value [3] was “dose dependent reduction”, the “gait symmetry (left/right step ratio)” value ([4]; week 11) was “modified step symmetry; also recorded: closer to 1” and the “number of steps per second, rear left limb, increase vs DMSO” value ([4]; week 11, MSC N=6, DMSO N=5) was 1.25 fold. The “number of steps per second, rear right limb, increase vs DMSO” value ([4]; week 11, MSC N=6, DMSO N=5) was 1.5 fold.
